Test system: LRF (luteinizing hormone releasing factor) induced luteinizing hormone (LH) release
Assay: In vitro LRF antagonist test in rat anterior pituitary cell cultures
Assay type: cell-based
Text: Nonapeptides of this invention were screened for LRF antagonist activity in vitro using rat anterior pituitary cell cultures as described by Vale et. al. [Endocrinology, 91, 562 (1972)]. The inhibition of LRF (luteinizing hormone releasing factor) induced luteinizing hormone (LH) release into the culture medium is the endpoint in this in vitro bioassay.

| Substance | LH released into culture medium (LRF alone, molar conc. 5×10^-10 (saline control 16.22)) [ng/mL] | LH released into culture medium (compound molar conc. 1×10^-7, LH released into culture medium, LRF control 5×10^-10) [ng/mL] | % LH Release Inhibition (compound molar conc. 1×10^-7, LRF control 5×10^-10) [%] | LH released into culture medium (compound molar conc. 1×10^-8, LH released into culture medium, LRF control 5×10^-10) [ng/mL] | % LH Release Inhibition (compound molar conc. 1×10^-8, LRF control 5×10^-10) [%] |
| --- | --- | --- | --- | --- | --- |
| LRF: luteinizing hormone releasing factor, formed in the hypothalamus, stimulates the secretion of luteinizing hormone from the anterior pituitary (QHWSYGLRPG; Gonadoliberin-1; UniProt P01148 24-33, looked up) [reference compound] | 80.93 | – | – | – | – |
| N^α -t-butoxycarbonyl-N^im -benzyl-L-histidyl-L-tryptophyl-O-benzyl-L-seryl-O-benzyl-L-tyrosyl-D-phenylalanyl-L-leucyl-N^G -[(4-methylphenyl)sulfonyl]-L-arginyl-L-prolyl-glycinamide | – | 24.91 | 87 | 52.47 | 44 |

— patent US4124577A, “Nonapeptides and methods for their production” (Warner-Lambert, priority 1977, dated 1978)
